Measured values from US6071709A, “Nerve growth factor/receptor complex” (The United States of America as represented by the …, priority 1992, dated 2000).

Tests used:
p140^prototrk [1] = assay: NGF-dependent trk tyrosine phosphorylation in LA-N-5 neuroblastoma cells; type: cell-based, human; settings: LA-N-5 cells, 100 ng/ml NGF for 5 min
From the text: (§1) FIGS. 4A-B show NGF-dependent tyrosine phosphorylation of gp140trk in the human neuroblastoma cell lines LA-N-5, SY5Y, and dorsal root ganglia from mouse embryos. FIG. 4A, gp140trk was immunoprecipitated from untreated (-) or NGF treated (+) LA-N-5 cells (K. H. Sonnenfeld and D. N. Ishii, J. Neurosci. Res. 8:375-391 (1982)), SY5Y cells (K. H. Sonnenfeld and D. N. Ishii, (1982)), NR18 cells (M. A. Bothwell et al., Cell 21:857-866 (1980)), or PC12 cells. Immunoprecipitates were probed with P-tyr antibodies. The differences in trk protein mobilities are due to differences in glycosylation. FIG. 4B, Tyrosine phosphorylation of gp140trk in DRGs from 13.5 day or 14.5 day embryonic mice. DRGs were maintained in 100 ng/ml NGF for ≥10 min prior to lysis and immunoprecipitation with trk antibodies. trk immunoprecipitates were probed with P-tyr antibody. Tyrosine phosphorylated gp140trk from NGF-treated (+) PC12 cells or untreated (-) PC12 cells is shown for comparison. Samples were normalized for cell protein. Molecular weight markers in kDa are indicated.
(§2) Cell lines were treated with 100 ng/ml NGF for 5 min and gp140trk immunoprecipitated as in FIG. 1. DRGs were prepared by dissection for 13.5 or 14.5 day mouse embryos. […] Lysates were immunoprecipitated with trk antibody and the trk proteins were analyzed by antiphosphotyrosine immunoblots. […]

p140^prototrk [2] = assay: Affinity crosslinking of 125I-NGF to gp140trk with HSAB and immunoprecipitation; type: binding, rat; settings: 0.5 nM 125I-NGF, 2 hr at 4° C., PC12 and rtrk-3T3 cells
From the text: FIG. 5 depicts the affinity crosslinking of NGF to gp140trk on PC12 cells and rtrk 3T3 cells. trk receptors were labeled by cross-linking of ^125 I-NGF to cultured cells using HSAB. The cell lines analyzed were PC12 cells (lanes 1-4), rtrk 3T3 cells (lanes 5-9), NIH-3T3 cells (lanes 10-11) and A875 human […] cells (lanes 13-15). Lysates from cells were immunoprecipitated with anti-NGF (lanes 1, 5, 9-14), gp140trk antibody 7-4 which is another trk antibody generated in bacteria against the gp70trk oncogene (7-4), (Martin-Zanca et al., (1989)) (lanes 2 and 6), or gp140trk antibody 43-4 in the absence (lanes […] and 15) or presence (lanes 4 and 8) of 10 μg/ml competing trk peptide. Crosslinking was performed in the presence of excess unlabeled NGF ([…]) in lanes 9, 11, and 14. The antibody 7-4 immunoprecipitates 3-5 fold less gp140 trk than does antibody 43-4. […]
^125 I-NGF was prepared by lactoperoxidase treatment to specific activities of 2500-3500 cpm/fmole. […] After washing in 50 mM lysine in phosphate buffered saline, cells were lysed in buffer containing 1% NP40 and the lysates immunoprecipitated and analyzed on 7.5% SDS-PAGE as described (Kaplan et al., (1990)).
To determine if NGF was capable of binding to p140^prototrk, several cell lines were analyzed for the ability of trk-specific antisera to precipitate receptor-ligand complexes in affinity crosslinking experiments (FIG. 5). […]
Target sequence in this assay (P35739 148-395 limits assumed): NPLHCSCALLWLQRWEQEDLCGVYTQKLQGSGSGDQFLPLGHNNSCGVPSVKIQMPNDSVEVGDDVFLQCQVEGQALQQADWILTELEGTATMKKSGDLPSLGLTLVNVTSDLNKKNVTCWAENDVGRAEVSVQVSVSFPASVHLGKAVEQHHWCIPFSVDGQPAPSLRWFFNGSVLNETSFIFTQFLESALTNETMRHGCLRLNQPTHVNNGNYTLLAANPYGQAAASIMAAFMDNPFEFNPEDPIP

gp140^prototrk = molecular target: T1, gp140^prototrk (Rattus norvegicus, UniProt P35739); settings: PC12 cells, after NGF administration (Kaplan et al., 1991); cited from earlier work
T1 construct: tyrosine phosphorylation in response to NGF addition to PC12 cells; endogenous in cells; host or cells: PC12 cells
T1 sequence (P35739 33-799): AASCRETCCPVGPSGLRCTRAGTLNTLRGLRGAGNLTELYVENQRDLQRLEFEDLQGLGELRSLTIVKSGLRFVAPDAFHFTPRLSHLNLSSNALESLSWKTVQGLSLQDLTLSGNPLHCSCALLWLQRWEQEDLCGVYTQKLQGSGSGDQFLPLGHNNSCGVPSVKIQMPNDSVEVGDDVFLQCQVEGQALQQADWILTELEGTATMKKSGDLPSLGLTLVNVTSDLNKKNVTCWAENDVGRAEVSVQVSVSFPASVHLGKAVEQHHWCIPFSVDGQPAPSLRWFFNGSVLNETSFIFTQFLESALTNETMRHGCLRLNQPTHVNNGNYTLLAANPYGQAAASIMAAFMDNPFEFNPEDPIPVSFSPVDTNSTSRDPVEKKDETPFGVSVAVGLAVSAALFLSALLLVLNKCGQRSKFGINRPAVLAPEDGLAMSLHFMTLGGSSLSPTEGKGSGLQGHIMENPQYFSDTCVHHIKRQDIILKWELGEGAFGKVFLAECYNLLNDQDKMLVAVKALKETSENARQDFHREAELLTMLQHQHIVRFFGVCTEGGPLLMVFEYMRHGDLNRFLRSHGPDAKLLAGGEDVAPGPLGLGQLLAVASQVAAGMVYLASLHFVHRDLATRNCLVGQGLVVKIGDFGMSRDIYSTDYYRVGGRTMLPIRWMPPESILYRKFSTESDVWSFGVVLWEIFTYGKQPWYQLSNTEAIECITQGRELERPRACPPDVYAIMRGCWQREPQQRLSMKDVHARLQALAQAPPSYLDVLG

p140^prototrk [3] = molecular target: p140^prototrk (Rattus norvegicus, UniProt P35739); assay: NGF-dependent trk tyrosine phosphorylation in NR18 cells (PC12 derivative); type: cell-based; set-up: the phosphorylation state of the trk receptor on the NR18 cell line; endogenous in cells; host or cells: NR18 cells; settings: 100 ng/ml NGF for 5 min
Sequence of p140^prototrk (Rattus norvegicus, UniProt P35739) (P35739 33-799): as above
From the text: as §1, §2

## NGF: neurotrophic polypeptide factor, nerve growth factor; ligand of trk proto-oncogene receptor
p140^prototrk [1]
  p140^prototrk tyrosine phosphorylation: enhanced
p140^prototrk [2]
  binding to p140^prototrk (160 kDa crosslinked species): binds
gp140^prototrk
  time to appearance of trk tyrosine phosphorylation: 1 min
p140^prototrk [3]
  p140^prototrk phosphorylation in response to NGF: no phosphorylation
